Experimental data published in patent publication EP0326490B2, “Synthetic peptides and mixtures thereof for detecting HIV antibodies” (ADALTIS INC., priority 1988, dated 2004).
Positions of bridges follow the written chain, without caps; N, C: chain ends. Residues, ends and D or L forms follow the SMILES beside them. No end group written: not given here.

Legend:
[1] = test system: HIV-1 positive sera; conditions: cited from earlier work; for HIV-1 positive sera reacting of sera tested: J. Virol. 61, 2639-2641, 1987
[2] = test system: HIV-1 positive sera; experiment: ELISA, single peptides identifying HIV-1 positive sera; format: binding, human; conditions: single gp41 or gp120 peptide
Procedure: According to this test a peptide or a peptide mixture of the present invention is adsorbed onto the wells of a microtiter plate. The wells are then treated with sera to be tested. After washing, anti-human IgG labeled with peroxidase is added to the wells. The determination of the peroxidase is performed with a corresponding substrate, e.g. with o-phenylene diamine. Also in this procedure the peroxidase can be exchanged by another label, e.g. by a radioactive or fluorescence label.
Each well of the microtiter plate is saturated with 100 µl of a solution containing a peptide or mixture of peptides (5 µg/ml) and left overnight. The wells are emptied and washed twice with a washing buffer (Tris, 0.043M; NaCl, 0.5M;thimerosal, 0.01% w/v; Tween 20, 0.05% v/v; pH 7.4). The wells are then saturated with […] of washing buffer for 1 hr. at 37°C and washed once with the same buffer. Serum samples to be analyzed are diluted with specimen buffer (washing buffer plus casein, 0.05% w/v). The bells are rinsed with washing buffer prior to the addition of the diluted serum sample (0.1 ml). These are left to incubate for 1 hr. at room temperature. The wells are then emptied, washed twice rapidly and then once for two minutes with washing buffer. […] The wells are then emptied and washed twice rapidly with washing buffer and then five times in which the buffer was in contact with the well 2 minutes per washing. The substrate solution (3,3', 5,5'-tetramethylbenzidine, 8 mg per ml of DMSO) is diluted with 100 volumes 0.1 M citrate-acetate buffer, pH 5.6 containing 0.1% v/v of 30% H2O2 and added to each well (0.1 ml per well). After 10 minutes the contents of each well is treated with 0.1 ml 2N H2SO4 and the optical density read at 450 nm. All determinations are done in duplicate.

[3] = Stability of linear and cyclic peptide in coating buffers (HPLC, Ellman's test); format: physicochemical
Excerpt: Even though results presented in TABLE 5 clearly show the superiority of cyclic peptides over their linear counterpart in detecting HIV-1-antibodies, that increased sensitivity could have been underestimated because of probable cyclization and polymerization of the linear peptide after solubilization in a carbonate buffer (pH 9.6). That experiment was repeated with the linear 87 and cyclic 87c peptides dissolved in a carbonate buffer (pH 9.6) as before and also in 10% acetic acid (pH 2.7). […] It is believed that cyclization and polymerization also occured in the wells of the microtiter plates although the exact proportion of cyclic peptide bound to the plates versus linear has not been as yet determined.

Question: For “12-amino acid sequence (600-611): 12-amino acid sequence (600-611) from gp41-(HIV-1), Gnann et al. (GKLICTTAVPWN; Transmembrane protein gp41; UniProt P04578 600-611, looked up, fragment)”, which “HIV-1 infected patients reactive of patients tested” value ([1]; Gnann et al., J. Infect. Dis. 156, 261-267, 1987, patients from the United States) is on record?
Answer: 131 out of 132

Question: What about the “HIV-1 positive sera reacting of sera tested” value ([1]; Gnann et al.) of the same molecule?
Answer: 22 out of 22

Question: And the “positive sera detected of sera tested” value ([1]; tests at the Centers for Disease Control, Atlanta)?
Answer: 78 out of 79

Question: With “96: cyclic peptide, amino acid positions 604-629 of gp41-HIV-1 (CTTAVPWNASWSNKSLEQIWNHTTWM; also: cyclic peptide, ring not given here; UniProt P04578 604-629, looked up, fragment) [Peptide 96]” as the molecule, how does the “% Positive Sera correctly Idenfitied” value [2] read?
Answer: 100%

Question: With “H-CGKIEPLGVAPTKAKRRVVQREKR-OH [Peptide 71]” as the molecule, how does the “% Positive Sera correctly Idenfitied” value [2] read?
Answer: 83%

Question: What does the source list for `CC[C@H](C)[C@H](NC(=O)CNC(=O)[C@H](CC(C)C)NC(=O)[C@H](CC(C)C)NC(=O)[C@H](CCC(N)=O)NC(=O)[C@H](CCC(N)=O)NC(=O)[C@H](CC(=O)O)NC(=O)[C@H](CCCCN)NC(=O)[C@H](CC(C)C)NC(=O)[C@H](Cc1ccc(O)cc1)NC(=O)[C@H](CCCNC(=N)N)NC(=O)[C@H](CCC(=O)O)NC(=O)[C@@H](NC(=O)[C@H](C)NC(=O)[C@H](CC(C)C)NC(=O)[C@@H](NC(=O)[C@@H](N)CCCNC(=N)N)[C@@H](C)CC)C(C)C)C(=O)N[C@@H](Cc1c[nH]c2ccccc12)C(=O)NCC(=O)N[C@@H](CS)C(=O)N[C@@H](CO)C(=O)NCC(=O)N[C@@H](CCCCN)C(=O)N[C@@H](CC(C)C)C(=O)N[C@H](C(=O)N[C@@H](CS)C(=O)N[C@H](C(=O)N[C@H](C(=O)N[C@@H](C)C(=O)N[C@H](C(=O)N1CCC[C@H]1C(=O)N[C@@H](Cc1c[nH]c2ccccc12)C(=O)N[C@@H](CC(N)=O)C(=O)N[C@@H](C)C(=O)N[C@@H](CO)C(=O)O)C(C)C)[C@@H](C)O)[C@@H](C)O)[C@@H](C)CC` [Peptide 87] (H-RILAVERYLKDQQLLGIWGCSGKLICTTAVPWNAS-OH)?
Answer: stability in solution (HPLC, Ellman's test) ([3]; 10% acetic acid (pH 2.7)): remained linear; stability in solution (HPLC analysis) ([3]; carbonate buffer (pH 9.6), room temperature): underwent cyclization and polymerization

Question: Which “% Positive Sera correctly Idenfitied” value [2] does the source give for “88: cyclic peptide, amino acid positions 590-620 of gp41-HIV-1 (QQLLGIWGCSGKLICTTAVPWNASWSNKSLE; disulfide 9-15 (inferred); UniProt P04578 590-620, looked up, fragment) [Peptide 88]” here?
Answer: 100%

Question: For “SGKLICTTAVPWNAS [short synthetic peptide covering residues 606 to 620 of gp41 (HIV-1)]”, which “specificity (samples correctly identified of samples tested)” value ([1]; US Patent Appl. No. 120,027) is on record?
Answer: 63/63

Question: And the sensitivity ([1]; prior-art reports, HIV-1 seropositive samples)?
Answer: 89%

Question: Which “HIV-1 positive sera reacting of sera tested” value ([1]; Gnann et al.) does the source give for SGKLIC here?
Answer: not immunoreactive with any of the 22 HIV-1 positive sera tested
